The NIST ThermoML archive (doi:10.1021/je400178k)

Assay: molar heat capacity at constant pressure; xn = mol fraction of the nth substance listed
Details: 101 kPa, Liquid, Small sample (50 mg) DSC

OCCN1CCNCC1 [N-(2-hydroxyethyl)piperazine] + O
molar heat capacity at constant pressure [J/K/mol]
Details	x1 = 0.0999	x1 = 0.2	x1 = 0.2921	x1 = 0.3916	x1 = 0.4896	x1 = 0.6011	x1 = 0.6947	x1 = 0.7952	x1 = 0.8939	x1 = 1
298.15 K	104.2	126.9	145.8	165.4	184.7	206.4	224.8	244.6	264.2	285
303.15 K	105.7	129.2	149.2	169.1	188.3	210.1	228.7	248.9	268.8	289.9
308.15 K	107.1	131.5	151.9	171.5	191	212.7	231.4	251.8	271.6	292.9
313.15 K	108.6	133.9	154.8	174.4	194.1	215.8	234.5	254.5	274.4	296
318.15 K	110.4	136.1	157.5	177.5	196.8	218.2	237.1	257.2	277.2	298.9
323.15 K	112.2	139	160.7	179.9	199.4	220.7	239.6	259.8	279.8	301.7
328.15 K	114.3	142.3	164.2	182.4	202	223.7	242.6	262.7	282.8	305
333.15 K	115.7	144.9	167.3	185.7	204.7	226.3	245.3	265.5	285.7	308.1
338.15 K	118.5	148	170.6	188.1	207.5	229.1	248.2	268.2	288.4	311
343.15 K	120.8	150.6	173.3	190.9	210.1	232	250.8	270.8	291.1	313.9
348.15 K	122.5	153	175.6	194	212.8	234.8	253.5	273.3	293.6	316.5
353.15 K	124	155.5	177.9	197.6	215.5	237.5	256.1	275.8	296.1	319
